What was measured:
PD-1/PD-L1 = PD-1/PD-L1 (Homo sapiens, UniProt Q9NZQ7); assay: PD-1/PD-L1 biochemical protein-protein interaction assay (ALPHA); assay type: binding; conditions: 0.3 nM His tagged PD-L1, 2.5 nM biotinylated Fc-PD-1, 60 minutes at 25° C., read-out: IC50 PD-L1-PD-1 Alpha IC50-mono PD-L1-fcP-D1
Outline: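 Final concentrations 0.3 nM His-tagged PD-L1 and 2.5 nM biotinylated Fc-PD-1 (extracellular domains) were reacted with compound for 60 min at 25° C in pH 7.4 Hepes/NaCl/EDTA/Tween/BSA buffer. Binding was then detected by ALPHA beads, and IC50 values were taken from four-parameter curve fitting.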

[1] = biological target: T1, interaction between the recombinant extracellular domain (ECD) of PD-1 and native cell-bound PD-L1 (Homo sapiens, UniProt Q9NZQ7); assay: CHO/PD-L1 cell capture assay; assay type: cell-based; conditions: CHO cells overexpressing PD-L1, pre-incubated 1 hr with compound, captured on biotinylated Fc-PD-1 coated plates, 75 min at room temperature
T1 construct: expressed in transfected cells
T1 sequence (Q9NZQ7 19-290): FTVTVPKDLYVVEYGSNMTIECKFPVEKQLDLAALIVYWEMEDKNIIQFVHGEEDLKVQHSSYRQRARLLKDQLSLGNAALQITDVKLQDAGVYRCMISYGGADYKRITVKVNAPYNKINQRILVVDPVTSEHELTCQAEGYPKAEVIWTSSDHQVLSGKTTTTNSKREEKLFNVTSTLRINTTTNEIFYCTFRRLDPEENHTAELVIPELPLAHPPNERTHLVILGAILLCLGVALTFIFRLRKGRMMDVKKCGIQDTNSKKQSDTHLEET
Outline: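 CHO cells stably overexpressing PD-L1 were pre-incubated 1 hr with compound, then captured 75 min at room temperature on biotinylated Fc-PD-1 ECD bound to streptavidin plates. After glutaraldehyde/Draq5 fixation-staining, captured cells were counted by high-content microscopy; EC50 from four-parameter dose-response fits.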

PD-1/PD-L1 interaction = biological target: T2, PD-1/PD-L1 interaction (Homo sapiens, UniProt Q9NZQ7); assay: PD-1/PD-L1 NFAT reporter co-culture assay; assay type: cell-based; conditions: Jurkat PD-1 NFAT-luciferase cells co-cultured with aAPC-PD-L1 CHO cells, 6 hrs at 37° C.; read-out: EC50 NFAT Luciferase
T2 construct: expressed in transfected cells; host or cells: CHO cells (aAPC-PD-L1) co-cultured with Jurkat cells overexpressing PD-1 and an NFAT-luciferase reporter
T2 sequence (Q9NZQ7 19-290): as above
Outline: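 Jurkat cells overexpressing PD-1 with NFAT-driven luciferase were mixed with compound in RPMI 1640/2% FBS and seeded onto overnight-plated CHO aAPC-PD-L1 cells expressing surface anti-CD3 and PD-L1. Co-culture ran 6 h at 37 °C; luminescence read with ONE-Glo; EC50 from four-parameter fit.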

PD-1/PD-L1, sequence (Q9NZQ7 19-238 limits assumed): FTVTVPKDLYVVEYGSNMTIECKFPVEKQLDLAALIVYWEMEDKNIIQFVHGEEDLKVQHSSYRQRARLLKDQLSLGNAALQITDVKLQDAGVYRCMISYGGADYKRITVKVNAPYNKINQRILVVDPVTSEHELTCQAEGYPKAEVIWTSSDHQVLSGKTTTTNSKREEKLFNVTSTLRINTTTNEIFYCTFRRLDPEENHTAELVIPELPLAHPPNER

| IC50 (PD-1/PD-L1) | EC50 [1] | EC50 (PD-1/PD-L1 interaction) | Compound |
| --- | --- | --- | --- |
| 0.4 nM | 110 nM | 5270 nM | Cc1c(-c2ccc(OCCNC[C@@H](O)CC(=O)O)cc2)cccc1-c1cccc(-c2ccc(OCCNC[C@@H](O)CC(=O)O)cc2)c1C [Example 106, (3S,3′S)-4,4′-((((2′,2″-dimethyl-[1,1′:3′,1″:3″,1′″-quaterphenyl]-4,4′″-diyl)bis(oxy))bis(ethane-2,1-diyl))bis(azanediyl))bis(3-hydroxybutanoic acid)] |
| 0.6 nM | 148 nM | 193 nM | COc1nc(OCc2cccc(-c3cccc(COc4nc(OC)c(CNC[C@@H](O)CC(=O)O)cc4Br)c3C)c2C)c(Br)cc1CNC[C@@H](O)CC(=O)O [Example 113, (3S,3′S)-4,4′-((((((2,2′-dimethyl-[1,1′-biphenyl]-3,3′-diyl)bis(methylene))bis(oxy))bis(5-bromo-2-methoxypyridine-6,3-diyl))bis(methylene))bis(azanediyl))bis(3-hydroxybutanoic acid)] |
| 0.5 nM | 140 nM | 186 nM | COc1nc(OCc2cccc(-c3cccc(COc4nc(OC)c(CNC[C@H](O)CC(=O)O)cc4Br)c3C)c2C)c(Br)cc1CNC[C@H](O)CC(=O)O [Example 114, (3R,3′R)-4,4′-((((((2,2′-dimethyl-[1,1′-biphenyl]-3,3′-diyl)bis(methylene))bis(oxy))bis(5-bromo-2-methoxypyridine-6,3-diyl))bis(methylene))bis(azanediyl))bis(3-hydroxybutanoic acid)] |
| 1.4 nM | 176 nM | 74 nM | Cc1c(COc2nc(OCc3cc(C#N)cc(C#N)c3)c(CNC[C@@H](O)CC(=O)O)cc2Br)cccc1-c1cccc(COc2nc(OCc3cc(C#N)cc(C#N)c3)c(CNC[C@@H](O)CC(=O)O)cc2Br)c1C [Example 121, (3S,3′S)-4,4′-((((((2,2′-dimethyl-[1,1′-biphenyl]-3,3′-diyl)bis(methylene))bis(oxy))bis(5-bromo-2-((3,5-dicyanobenzyl)oxy)pyridine-6,3-diyl))bis(methylene))bis(azanediyl))bis(3-hydroxybutanoic acid)] |
| 0.1 nM | 180 nM | 327 nM | Cc1c(COc2nc(OCc3cncnc3)c(CNC[C@@H](O)CC(=O)O)cc2Br)cccc1-c1cccc(COc2nc(OCc3cncnc3)c(CNC[C@@H](O)CC(=O)O)cc2Br)c1C [Example 126, (3S,3′S)-4,4′-((((((2,2′-dimethyl-[1,1′-biphenyl]-3,3′-diyl)bis(methylene))bis(oxy))bis(5-bromo-2-(pyrimidin-5-ylmethoxy)pyridine-6,3-diyl))bis(methylene))bis(azanediyl))bis(3-hydroxybutanoic acid)] |
| 0.3 nM | 117 nM | 1200 nM | CNC(=O)COc1nc(OCc2cccc(-c3cccc(COc4nc(OCC(=O)NC)c(CNC[C@@H](O)CC(=O)O)cc4Br)c3C)c2C)c(Br)cc1CNC[C@@H](O)CC(=O)O [Example 147, (3S,3′S)-4,4′-((((((2,2′-dimethyl-[1,1′-biphenyl]-3,3′-diyl)bis(methylene))bis(oxy))bis(5-bromo-2-(2-(methylamino)-2-oxoethoxy)pyridine-6,3-diyl))bis(methylene))bis(azanediyl))bis(3-hydroxybutanoic acid)] |
| 0.2 nM | 211 nM | 6490 nM | Cc1c(COc2nc(OCC(N)=O)c(CNC[C@@H](O)CC(=O)O)cc2Br)cccc1-c1cccc(COc2nc(OCC(N)=O)c(CNC[C@@H](O)CC(=O)O)cc2Br)c1C [Example 155, (3S,3′S)-4,4′-((((((2,2′-dimethyl-[1,1′-biphenyl]-3,3′-diyl)bis(methylene))bis(oxy))bis(2-(2-amino-2-oxoethoxy)-5-bromopyridine-6,3-diyl))bis(methylene))bis(azanediyl))bis(3-hydroxybutanoic acid)] |
| 0.2 nM | 81.1 nM | 465 nM | Cc1c(COc2ccc(CNC[C@@H](O)CC(=O)O)c(OCc3cncnc3)n2)cccc1-c1cccc(COc2ccc(CNC[C@@H](O)CC(=O)O)c(OCc3cncnc3)n2)c1C [Example 157, (3S,3′S)-4,4′-((((((2,2′-dimethyl-[1,1′-biphenyl]-3,3′-diyl)bis(methylene))bis(oxy))bis(2-(pyrimidin-5-ylmethoxy)pyridine-6,3-diyl))bis(methylene))bis(azanediyl))bis(3-hydroxybutanoic acid)] |
| 0.5 nM | 190 nM | 538 nM | Cc1c(COc2nc(OCCN3CCOCC3)c(CNC[C@@H](O)CC(=O)O)cc2Cl)cccc1-c1cccc(COc2nc(OCCN3CCOCC3)c(CNC[C@@H](O)CC(=O)O)cc2Cl)c1C [Example 159, (3S,3′S)-4,4′-((((((2,2′-dimethyl-[1,1′-biphenyl]-3,3′-diyl)bis(methylene))bis(oxy))bis(5-chloro-2-(2-morpholinoethoxy)pyridine-6,3-diyl))bis(methylene))bis(azanediyl))bis(3-hydroxybutanoic acid)] |

More lines, now with the values behind:

| Compound | IC50 (PD-1/PD-L1) | EC50 [1] | EC50 (PD-1/PD-L1 interaction) |
| --- | --- | --- | --- |
| Cc1c(COc2nc(OCc3cncc(C#N)c3)c(CNC[C@@H](O)CC(=O)O)cc2Cl)cccc1-c1cccc(COc2nc(OCc3cncc(C#N)c3)c(CNC[C@@H](O)CC(=O)O)cc2Cl)c1C [Example 34, (3S,3′S)-4,4′-((((((2,2′-dimethyl-[1,1′-biphenyl]-3,3′-diyl)bis(methylene))bis(oxy))bis(5-chloro-2-((5-cyanopyridin-3-yl)methoxy)pyridine-6,3-diyl))bis(methylene))bis(azanediyl))bis(3-hydroxybutanoic acid)] | 0.4 nM | 321 nM | 195 nM |
| Cc1c(COc2nc(OCc3cncc(C#N)c3)c(CNCCO)cc2Cl)cccc1-c1cccc(COc2nc(OCc3cncc(C#N)c3)c(CNCCO)cc2Cl)c1C [Example 35, 5,5′-((((((2,2′-dimethyl-[1,1′-biphenyl]-3,3′-diyl)bis(methylene))bis(oxy))bis(5-chloro-3-(((2-hydroxyethyl)amino)methyl)pyridine-6,2-diyl))bis(oxy))bis(methylene))dinicotinonitrile] | 15.6 nM | 264 nM | 296 nM |
| CCCc1cc(CNCCO)c(OCc2cncc(C#N)c2)cc1OCc1cccc(-c2cccc(COc3cc(OCc4cncc(C#N)c4)c(CNCCO)cc3CCC)c2C)c1C [Example 39, 5,5′-((((((2,2′-dimethyl-[1,1′-biphenyl]-3,3′-diyl)bis(methylene))bis(oxy))bis(6-(((2-hydroxyethyl)amino)methyl)-4-propyl-3,1-phenylene))bis(oxy))bis(methylene))dinicotinonitrile] | 167 nM | 267 nM | ≥ 50000 nM |
| Cc1c(COc2nc(OCc3cncc(S(C)(=O)=O)c3)c(CN[C@@](C)(CO)C(=O)O)cc2Br)cccc1-c1cccc(COc2nc(OCc3cncc(S(C)(=O)=O)c3)c(CN[C@@](C)(CO)C(=O)O)cc2Br)c1C [Example 41, (2S,2′S)-2,2′-((((((2,2′-dimethyl-[1,1′-biphenyl]-3,3′-diyl)bis(methylene))bis(oxy))bis(5-bromo-2-((5-(methylsulfonyl)pyridin-3-yl)methoxy)pyridine-6,3-diyl))bis(methylene))bis(azanediyl))bis(3-hydroxy-2-methylpropanoic acid)] | 0.2 nM | 248 nM | 188 nM |
| Cc1c(COc2nc(OCc3cncc(S(C)(=O)=O)c3)c(CNC[C@@H](O)CC(=O)O)cc2Br)cccc1-c1cccc(COc2nc(OCc3cncc(S(C)(=O)=O)c3)c(CNC[C@@H](O)CC(=O)O)cc2Br)c1C [Example 42, (3S,3′S)-4,4′-((((((2,2′-dimethyl-[1,1′-biphenyl]-3,3′-diyl)bis(methylene))bis(oxy))bis(5-bromo-2-((5-(methylsulfonyl)pyridin-3-yl)methoxy)pyridine-6,3 diyl))bis(methylene))bis(azanediyl))bis(3-hydroxybutanoic acid)] | 0.3 nM | 149 nM | 123 nM |
| COc1nc(OCc2cccc(-c3cccc(COc4ccc(CN[C@@](C)(CO)C(=O)O)c(OC)n4)c3C)c2C)ccc1CN[C@@](C)(CO)C(=O)O [Example 61, (2S,2′S)-2,2′-((((((2,2′-dimethyl-[1,1′-biphenyl]-3,3′-diyl)bis(methylene))bis(oxy))bis(2-methoxypyridine-6,3-diyl))bis(methylene))bis(azanediyl))bis(3-hydroxy-2-methylpropanoic acid)] | 0.7 nM | 200 nM | 6780 nM |
| Cc1c(COc2cc(OCc3cncc(C#N)c3)c(CNCCO)cc2Cl)cccc1-c1cccc(COc2cc(OCc3cncc(C#N)c3)c(CNCCO)cc2Cl)c1C [Example 68, 5,5′-((((((2,2′-dimethyl-[1,1′-biphenyl]-3,3′-diyl)bis(methylene))bis(oxy))bis(4-chloro-6-(((2-hydroxyethyl)amino)methyl)-3,1-phenylene))bis(oxy))bis(methylene))dinicotinonitrile] | 10.3 nM | 279 nM | 553 nM |
